Experimental findings from US8227422B2, “Peptides and compounds that bind to a receptor” (Glaxosmithkline LLC, priority 1996, dated 2012) are described below.

Several values for one entry are separate records, joined by “and”; a condition that tells them apart may be missing. Identical values can stand only once. Like-named read-outs stand apart in the source and are kept apart here. Where a SMILES comes first, the peptide text is derived from it.

The target in one assay is T1, TPO receptor (Homo sapiens, UniProt P40238).
T1 sequence (P40238 26-635): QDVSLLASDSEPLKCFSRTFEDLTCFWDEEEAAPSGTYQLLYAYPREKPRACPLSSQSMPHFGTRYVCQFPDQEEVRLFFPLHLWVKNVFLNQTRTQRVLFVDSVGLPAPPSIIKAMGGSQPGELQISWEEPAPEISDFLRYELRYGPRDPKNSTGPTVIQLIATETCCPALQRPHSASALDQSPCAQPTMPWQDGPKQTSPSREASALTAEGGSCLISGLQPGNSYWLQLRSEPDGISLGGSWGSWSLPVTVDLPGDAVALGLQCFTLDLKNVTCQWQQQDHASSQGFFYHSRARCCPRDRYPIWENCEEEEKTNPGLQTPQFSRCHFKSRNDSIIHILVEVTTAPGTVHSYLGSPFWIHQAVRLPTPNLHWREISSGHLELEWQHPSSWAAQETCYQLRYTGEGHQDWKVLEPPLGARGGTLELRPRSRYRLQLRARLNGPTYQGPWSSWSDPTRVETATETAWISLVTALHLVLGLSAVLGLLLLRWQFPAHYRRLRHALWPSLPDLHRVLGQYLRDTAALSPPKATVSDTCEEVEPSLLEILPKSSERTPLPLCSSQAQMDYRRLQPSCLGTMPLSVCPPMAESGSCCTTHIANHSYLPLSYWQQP
In words: Microphysiometer assay: rate of acidification of extracellular medium on TPO receptor stimulation. It is filed as cell-based.

Assay [1] has as its target T2, human TPO-R (transfected Ba/F3 cells) (Homo sapiens, UniProt P40238).
T2 construct: Murine IL-3 dependent Ba/F3 cells were transfected with full length human TPO-R; expressed in transfected cells; host or cells: murine Ba/F3 cells
T2 sequence (P40238 26-635): T1 sequence (P40238 26-635)
Put plainly: Thrombopoietin dependent cell proliferation assay (MTT), TPO-R transfected Ba/F3 cells. It is filed as cell-based.

The next assay deals with T3, TPO-R (Homo sapiens, UniProt P40238).
T3 construct: made in house
T3 sequence (P40238 26-491 limits assumed): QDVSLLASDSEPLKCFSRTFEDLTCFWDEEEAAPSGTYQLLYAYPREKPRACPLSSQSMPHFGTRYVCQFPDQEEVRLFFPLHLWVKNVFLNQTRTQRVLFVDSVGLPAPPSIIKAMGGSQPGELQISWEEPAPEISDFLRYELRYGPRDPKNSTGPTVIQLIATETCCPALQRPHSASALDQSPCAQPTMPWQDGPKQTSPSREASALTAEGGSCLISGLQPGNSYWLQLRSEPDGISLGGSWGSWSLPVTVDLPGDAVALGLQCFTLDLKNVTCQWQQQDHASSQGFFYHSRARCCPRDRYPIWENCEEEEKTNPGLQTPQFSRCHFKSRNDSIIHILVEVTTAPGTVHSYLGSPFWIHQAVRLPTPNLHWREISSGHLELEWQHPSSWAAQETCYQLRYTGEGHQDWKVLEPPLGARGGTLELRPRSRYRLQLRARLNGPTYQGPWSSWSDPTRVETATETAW
Put plainly: Competition binding assay (equilibrium binding ELISA, MBP-TPO156 tracer) on immobilized TPO-R. Particulars: read-out: IC50. (In an ELISA, binding on a coated surface is turned into a signal by an enzyme label.)

The subject of assay [2] is marrow cells of Balb/C mice (mouse receptor). In words: Mouse marrow cells in liquid culture, AChE-positive megakaryocyte outgrowth. Format: cell-based. Particulars: for Response (AChE-positive megakaryocytes): 7 days liquid culture. The procedure:
To assess the feasibility of mice as a convenient test species, several in vitro experiments, designed to measure the activity of the test compounds on the mouse receptor, have been done. First, marrow cells, harvested from the femurs of 8 to 9 week one Balb/C mice, were incubated for 7 days in liquid culture with either rhuTPO or various concentrations of the test peptides. At the end of the incubation period, the cultures were concentrated by Cytospin, stained for acetylcholinesterase (AChE, a diagnostic of mouse megakaryocytes), and counted by microscopic analysis. One (X) nM rhuTPO gave rise to the outgrowth of very large (>40 um) non-adherent cells that stain for AChE. These cells appear to be mature megakaryocytes. From an initial seeding of 10^6 total marrow cells/ml (in 50 ml cultures) an estimated 1 to 2×10^6 megakaryocytes developed. This responce to TPO was designated as “maximal”. Control cultures containing no added growth factors produced very few AChE-positive cells. […] This finding was the first evidence that this peptide family is active on the murine receptor. In a second experiment, marrow cells were harvested and cultured in semi-solid medium (methylcellulose) containing either no factors, 1 nM rhuTPO, or 10 uM Peptide A. After 7 days in culture, colonies of large cell (presumed to be megakaryocytes) were counted and grouped into small colonies (3-5 cells) or large colonies (greater than 6 cells). TPO and the test peptides both produced substantially more colonies of both sized than did the negative control cultures.

In assay [3] the test system is marrow cells (Mk precursor cell population). Put plainly: Mouse marrow cells in semi-solid medium (methylcellulose), colonies of large cells. It is filed as cell-based. The settings on record: 1 nM TPO; 7 days in methylcellulose; replicates #1-1 to #2-2. On the procedure: To assess the feasibility of mice as a convenient test species, several in vitro experiments, designed to measure the activity of the test compounds on the mouse receptor, have been done. First, marrow cells, harvested from the femurs of 8 to 9 week one Balb/C mice, were incubated for 7 days in liquid culture with either rhuTPO or various concentrations of the test peptides. At the end of the incubation period, the cultures were concentrated by Cytospin, stained for acetylcholinesterase (AChE, a diagnostic of mouse megakaryocytes), and counted by microscopic analysis. One (X) nM rhuTPO gave rise to the outgrowth of very large (>40 um) non-adherent cells that stain for AChE. These cells appear to be mature megakaryocytes. From an initial seeding of 10^6 total marrow cells/ml (in 50 ml cultures) an estimated 1 to 2×10^6 megakaryocytes developed. This responce to TPO was designated as “maximal”. Control cultures containing no added growth factors produced very few AChE-positive cells. […] In a second experiment, marrow cells were harvested and cultured in semi-solid medium (methylcellulose) containing either no factors, 1 nM rhuTPO, or 10 uM Peptide A. After 7 days in culture, colonies of large cell (presumed to be megakaryocytes) were counted and grouped into small colonies (3-5 cells) or large colonies (greater than 6 cells). […]

Where [4] appears, read: Table 4, cyclized compounds, microphysiometer, read-out: EC50 (nM) Microonys.
The mark [5] stands for this setting: Table 4, cyclized compounds, read-out: EC50 (nM) Proliferation.

Method for TPO receptor: In this example cyclized compounds were subjected to three assays. […] Finally, a microphysiometer (Molecular Devices Corp.) assay was performed. […] The ranges for EC50 are symbolically indicated as for IC50 described above.

The IC50 is the concentration that gives 50% inhibition. As to `CC[C@H](C)[C@@H]1NC(=O)[C@H](Cc2c[nH]c3ccccc23)NC(=O)[C@H](CCC(=O)O)NC(=O)[C@H](CCCNC(=N)N)NC(=O)[C@H](CC(C)C)NC(=O)[C@H]([C@@H](C)O)NC(=O)[C@@H]2CCCN2C(=O)CNC(=O)[C@H](CC(=O)O)NC(=O)[C@H](C)NC(=O)[C@@H](N)CSSC[C@H](C(N)=O)NC(=O)[C@H](Cc2ccccc2)NC(=O)[C@H](CO)NC1=O` (HELM PEPTIDE1{C.A.D.G.P.T.L.R.E.W.I.S.F.[dC].[am]}$PEPTIDE1,PEPTIDE1,1:R3-14:R3$$$V2.0), the EC50 (at TPO receptor (setting [4]); in assay [1] (setting [5])) was less than 200000 nM throughout. In addition, the IC50 on TPO-R (Table 4, cyclized compounds) was not above 0.5 µM.

On to `CC[C@H](C)[C@@H]1NC(=O)[C@H](Cc2c[nH]c3ccccc23)NC(=O)[C@H](CCC(=O)O)NC(=O)[C@H](CCCNC(=N)N)NC(=O)[C@H](CC(C)C)NC(=O)[C@H]([C@@H](C)O)NC(=O)[C@@H]2CCCN2C(=O)CNC(=O)[C@H](CC(=O)O)NC(=O)[C@H](C)NC(=O)[C@H](N)C(C)(C)SSC[C@H](C(N)=O)NC(=O)[C@H](Cc2ccccc2)NC(=O)[C@H](CO)NC1=O` (HELM PEPTIDE1{[CC(C)(S[*:3])[C@@H](N)C(=O)[*:2]].A.D.G.P.T.L.R.E.W.I.S.F.[dC].[am]}$PEPTIDE1,PEPTIDE1,1:R3-14:R3$$$V2.0), for which the EC50 (at TPO receptor (setting [4]); in assay [1] (setting [5])) was less than 200000 nM in each case. Besides, the 50% inhibitory concentration (IC50) at TPO-R (Table 4, cyclized compounds) was not above 0.5 µM.

Regarding `CC[C@H](C)[C@@H]1NC(=O)[C@H](Cc2c[nH]c3ccccc23)NC(=O)[C@H](CCC(=O)O)NC(=O)[C@H](CCCNC(=N)N)NC(=O)[C@H](CC(C)C)NC(=O)[C@H]([C@@H](C)O)NC(=O)[C@@H]2CCCN2C(=O)CNC(=O)[C@H](CC(=O)O)NC(=O)[C@H](C)NC(=O)[C@@H](N)CCSSCC[C@@H](C(N)=O)NC(=O)[C@H](Cc2ccccc2)NC(=O)[C@H](CO)NC1=O` (HELM PEPTIDE1{[N[C@@H](CCS[*:3])C(=O)[*:2]].A.D.G.P.T.L.R.E.W.I.S.F.[O=C([C@H](CCS[*:3])N[*:1])[*:2]].[am]}$PEPTIDE1,PEPTIDE1,1:R3-14:R3$$$V2.0), the EC50 (at TPO receptor (setting [4]); in assay [1] (setting [5])) was less than 200000 nM each time. Further, the half-inhibitory concentration (IC50) at TPO-R (Table 4, cyclized compounds) is not above 0.5 µM.

Consider `CC[C@H](C)[C@@H]1NC(=O)[C@H](Cc2c[nH]c3ccccc23)NC(=O)[C@H](CCC(=O)O)NC(=O)[C@H](CCCNC(=N)N)NC(=O)[C@H](CC(C)C)NC(=O)[C@H]([C@@H](C)O)NC(=O)[C@@H]2CCCN2C(=O)CNC(=O)[C@H](CC(=O)O)NC(=O)[C@H](C)NC(=O)CSCC[C@@H](C(N)=O)NC(=O)[C@H](Cc2ccccc2)NC(=O)[C@H](CO)NC1=O` (HELM PEPTIDE1{[O=C(C[*:3])[*:2]].A.D.G.P.T.L.R.E.W.I.S.F.[O=C([C@H](CCS[*:3])N[*:1])[*:2]].[am]}$PEPTIDE1,PEPTIDE1,1:R3-14:R3$$$V2.0), for which the EC50 (at TPO receptor (setting [4]); in assay [1] (setting [5])) was less than 200000 nM each time. The IC50 at TPO-R (Table 4, cyclized compounds) is not above 0.5 µM.

On to `CC[C@H](C)[C@@H]1NC(=O)[C@H](Cc2c[nH]c3ccccc23)NC(=O)[C@H](CCC(=O)O)NC(=O)[C@H](CCCNC(=N)N)NC(=O)[C@H](CC(C)C)NC(=O)[C@H]([C@@H](C)O)NC(=O)[C@@H]2CCCN2C(=O)CNC(=O)[C@H](CC(=O)O)NC(=O)[C@H](C)NC(=O)CSC(C)(C)[C@@H](C(N)=O)NC(=O)[C@H](Cc2ccccc2)NC(=O)[C@H](CO)NC1=O` (HELM PEPTIDE1{[O=C(C[*:3])[*:2]].A.D.G.P.T.L.R.E.W.I.S.F.[Pen].[am]}$PEPTIDE1,PEPTIDE1,1:R3-14:R3$$$V2.0), for which the EC50 (on TPO receptor (setting [4]); in assay [1] (setting [5])) was less than 200000 nM in each case. The 50% inhibitory concentration (IC50) at TPO-R (Table 4, cyclized compounds) is not above 200 µM.

`CC[C@H](C)[C@@H]1NC(=O)[C@H](Cc2c[nH]c3ccccc23)NC(=O)[C@H](CCC(=O)O)NC(=O)[C@H](CCCNC(=N)N)NC(=O)[C@H](CC(C)C)NC(=O)[C@H]([C@@H](C)O)NC(=O)[C@@H]2CCCN2C(=O)CNC(=O)[C@H](CC(=O)O)NC(=O)[C@H](C)NC(=O)[C@@H](N)C(C)(C)SSC[C@@H](C(N)=O)NC(=O)[C@H](Cc2ccccc2)NC(=O)[C@H](CO)NC1=O` (HELM PEPTIDE1{[Pen].A.D.G.P.T.L.R.E.W.I.S.F.C.[am]}$PEPTIDE1,PEPTIDE1,1:R3-14:R3$$$V2.0): the EC50 (at TPO receptor (setting [4]); in assay [1] (setting [5])) was less than 500 nM in each case. In addition, at TPO-R (Table 4, cyclized compounds), the 50% inhibitory concentration (IC50) was not above 0.5 µM.

With `CC[C@H](C)[C@@H]1NC(=O)[C@H](Cc2c[nH]c3ccccc23)NC(=O)[C@H](CCC(=O)O)NC(=O)[C@H](CCCNC(=N)N)NC(=O)[C@H](CC(C)C)NC(=O)[C@H]([C@@H](C)O)NC(=O)[C@@H]2CCCN2C(=O)CNC(=O)[C@H](CC(=O)O)NC(=O)[C@H](C)NC(=O)[C@@H](N)CSSC[C@@H](C(N)=O)NC(=O)[C@H](CC2CCCCC2)NC(=O)[C@H](CO)NC1=O` [F-CHA] (HELM PEPTIDE1{C.A.D.G.P.T.L.R.E.W.I.S.[Cha].C.[am]}$PEPTIDE1,PEPTIDE1,1:R3-14:R3$$$V2.0; N-terminus and C-terminus assumed), the EC50 at TPO receptor (Table 5, value in parentheses, read-out: EC50 (nM), microphysiometer results given in parentheses) is less than 500 nM; in assay [1] (Table 5, substitutions in cyclized compound, read-out: EC50 (nM) Cell Prolif.), less than 500 nM. The half-inhibitory concentration (IC50) at TPO-R (Table 5) was not above 0.5 µM.

In the case of “S.A. alone: streptavidin alone [reference compound]”, in assay [2] (1000 nM (putative 1:4 complex), maximal = 25–30% AChE staining cells), the “Response (AChE-positive megakaryocytes)” value was “none”.

Consider “TPO: recombinant human TPO (thrombopoietin)”, for which, in assay [3], the “colonies of 3–5 large cells” value was 15 and 12 and 16 and 13; the “colonies of 6–12 large cells” value is 6 and 1 and 8 and 3. For the same molecule, the “Response (AChE-positive megakaryocytes)” value in assay [2] (1 nM) is on record as ““maximal””. Moreover, in assay [2] (One (X) nM rhuTPO, initial seeding 10^6 total marrow cells/ml (50 ml cultures), 7 days), the megakaryocytes developed is reported as 1 to 2×10^6 megakaryocytes.
